Tested on: lipase (produced by Sigma)
Assay: Determination of lipase inhibitory activity (olive oil substrate emulsion, copper reagent, absorbance at 480 nm)
Format: biochemical
Conditions: 37° C., 30 minutes
Description: Ten micro litter of a solution containing the composition of the present invention obtained in Example 2 or 3 (diluted with a buffer to a final concentration of 0.01 or 0.1 mg/mL) or 10 μL of a solution containing the composition of the present invention obtained in Example 4 (at a final concentration of 1 mg/mL) was added to 80 μL, of a substrate emulsion (3.0 g of obtained by adding olive oil to 100 mL of a buffer described below, followed by sonication). The resultant was allowed to stand at 37° C. for 10 minutes. Ten micro litter of a lipase solution (diluted with a buffer to a concentration of lipase (produced by Sigma) of 1.0 mg/mL) was added thereto. The mixture was reacted with an enzyme reaction at 37° C. for 30 minutes. […] A coloring solution was added to the supernatant for determination of an absorbance at 480 nm. […] Results were calculated by Equation 1 described below with absorbance of the following: the composition of the present invention; a blank replaced the lipase solution with a buffer; and a control replaced a solution containing the composition of the present invention with a buffer. […]
Inhibition rate (%)=[1−[absorbance of the composition of the present invention−blank absorbance]/[control absorbance−blank absorbance]]

Work on purothionin [Positive control] yielded a Lipase inhibition rate (final concentration 0.1 mg/mL) of 76% and a Lipase inhibition rate (final concentration 1 mg/mL) of 96%.

Source: patent US20100173025A1, “FAT ABSORPTION INHIBITORY COMPOSITION” (NISSHIN PHARMA INC., priority 2007, published 2010)
